Measured values published in US20240279223A1, “5-OXO-PYRIDO[2,3-D]PYRIDAZIN-6(5H)-YL ACETAMIDES” (JANSSEN PHARMACEUTICA NV, priority 2021, published 2024).
pEC50, pIC50: −log10 of the molar value.

Legend:
IL-1β = test: PBMC assay: IL-1β release after LPS stimulation; format: cell-based; settings: human PBMCs, 30 min preincubation, 100 ng/ml LPS for 6 hrs, supernatant, MSD technology
Experimental: (§1) Peripheral venous blood was collected from healthy individuals and human peripheral blood mononuclear cells (PBMCs) were isolated from blood by Ficoll-Histopaque (Sigma-Aldrich, A0561) density gradient centrifugation. After isolation, PBMCs were stored in liquid nitrogen for later use. Upon thawing, PBMC cell viability was determined in growth medium (RPMI media supplemented with 10% fetal bovine serum, 1% Pen-Strep and 1% L-glutamine). Compounds were spotted in a 1:3 serial dilution in DMSO and diluted to the final concentration in 30 μl medium in 96 well plates (Falcon, 353072). PBMCs were added at a density of 7.5×10^4 cells per well and incubated for 30 min in a 5% CO2 incubator at 37° C. LPS stimulation was performed by addition of 100 ng/ml LPS (final concentration, Invivogen, tirl-smlps) for 6 hrs followed by collection of cellular supernatant and the analysis of IL-1β (μM) and TNF cytokines levels (μM) via MSD technology according to manufacturers' guidelines (MSD, K 151A0H).
(§2) The IC50 values (for IL-1β) and EC50 values (TNF) were obtained on compounds of the invention/examples, and are depicted in the following table: […]

TNF = test: PBMC assay: TNF cytokine levels after LPS stimulation; format: cell-based; settings: human PBMCs, 30 min preincubation, 100 ng/ml LPS for 6 hrs, supernatant, MSD technology
Experimental: as §1, §2

| SMILES | pIC50 (IL-1β; Homo sapiens, PBMC) | pEC50 (TNF; Homo sapiens, PBMC) | pIC50 (IL-1β) | pEC50 (TNF) |
| --- | --- | --- | --- | --- |
| CCc1ccc2c(=O)n(CC(=O)N[C@H]3C[C@@](C)(O)C3)nc(CC)c2n1 [Compound 6] | 6.11 | 4.75 |  |  |
| CC(C)c1nn(CC(=O)Nc2ccc3nncn3c2)c(=O)c2ccc(C(F)(F)F)nc12 [Compound 13] | 7.00 | < 4.70 |  |  |
| CN(C)c1nn(CC(=O)Nc2ccc3nncn3n2)c(=O)c2ccc(C(C)(F)F)nc12 [Compound 25] |  |  | 6.12 | < 4.70 |
| CCc1nn(CC(=O)N[C@H]2C[C@@](C)(O)C2)c(=O)c2ccc(C3CC3)nc12 [Compound 4] | 6.43 |  |  |  |
| CC(C)c1nn(CC(=O)Nc2ccnnc2)c(=O)c2ccc(C(F)(F)F)nc12 [Compound 18] | 6.39 | 4.90 |  |  |
| CC(C)c1nn(CC(=O)NC2CCOCC2)c(=O)c2ccc(C(F)(F)F)nc12 [Compound 12] | 6.11 | < 4.70 |  |  |
| CN(C)c1nn(CC(=O)Nc2ccc3nncn3n2)c(=O)c2ccc(C(F)(F)F)nc12 [Compound 23] |  |  | 6.47 | < 4.70 |
| CC(C)c1nn(CC(=O)N[C@H]2C[C@@](C)(O)C2)c(=O)c2ccc(C(F)(F)F)nc12 [Compound 14] | 7.30 | < 4.70 |  |  |
| CC(C)c1nn(CC(=O)Nc2ccc3nncn3c2)c(=O)c2ccc(C(C)(F)F)nc12 [Compound 8] | 6.92 | 4.77 |  |  |
| CCc1nn(CC(=O)Nc2ccc3nncn3c2)c(=O)c2ccc(C3CC3)nc12 [Compound 5] | 6.49 | 4.89 |  |  |
| CCc1nn(CC(=O)Nc2ccncn2)c(=O)c2ccc(C(C)C)nc12 [Compound 2] | 5.83 | < 4.70 |  |  |
| CCc1nn(CC(=O)Nc2ccncn2)c(=O)c2ccc(C3CC3)nc12 [Compound 3] | 5.35 | < 4.70 |  |  |
| CC(C)c1nn(CC(=O)Nc2ccc3nncn3n2)c(=O)c2ccc(C(C)(F)F)nc12 [Compound 21] | 7.15 | 5.54 |  |  |
| CC(C)c1nn(CC(=O)Nc2ccc(=O)n(C)c2)c(=O)c2ccc(C(F)(F)F)nc12 [Compound 16] | 6.48 | < 4.70 |  |  |
| CC(C)c1nn(CC(=O)Nc2ccc3nncn3n2)c(=O)c2ccc(C(F)(F)F)nc12 [Compound 20, N-([1,2,4]triazolo[4,3-b]pyridazin-6-yl)-2-(8-isopropyl-5-oxo-2-(trifluoromethyl)pyrido[2,3-d]pyridazin-6(5H)-yl)acetamide] | 5.53 | < 4.70 |  |  |
| CC(C)c1nn(CC(=O)Nc2cncnc2)c(=O)c2ccc(C(F)(F)F)nc12 [Compound 19] | 7.22 | 4.93 |  |  |
| CN(C)c1nn(CC(=O)Nc2ccc3nncn3n2)c(=O)c2ccc(C(F)(F)F)nc12 [Compound 22] |  |  | 6.82 | 5.23 |
| CN(C)c1nn(CC(=O)Nc2ccc3nncn3c2)c(=O)c2ccc(C(F)(F)F)nc12 [Compound 9] | 6.49 | < 4.70 |  |  |
| Cc1cc(NC(=O)Cn2nc(C(C)C)c3nc(C(F)(F)F)ccc3c2=O)ccn1 [Compound 17] | 6.32 | 4.78 |  |  |
| CCc1nn(CC(=O)Nc2ccc3nncn3c2)c(=O)c2ccc(OC)nc12 [Compound 7] | 5.17 | < 4.70 |  |  |
| CC(C)c1nn(CC(=O)Nc2ccc3cn[nH]c3c2)c(=O)c2ccc(C(F)(F)F)nc12 [Compound 26, N-(1H-indazol-6-yl)-2-(8-isopropyl-5-oxo-2-(trifluoromethyl)pyrido[2,3-d]pyridazin-6(5H)-yl)acetamide] | 6.77 | < 4.70 |  |  |
| CC(C)c1nn(CC(=O)Nc2ccc3nccn3c2)c(=O)c2ccc(C(F)(F)F)nc12 [Compound 15] | 6.41 | < 4.70 |  |  |
| CN(C)c1nn(CC(=O)Nc2ccc3nncn3c2)c(=O)c2ccc(C(C)(F)F)nc12 [Compound 10] | 6.52 | < 4.70 |  |  |
| CCc1nn(CC(=O)N[C@H]2C[C@@](C)(O)C2)c(=O)c2ccc(C(C)C)nc12 [Compound 1] | 6.28 | 4.97 |  |  |
| CN(C)c1nn(CC(=O)Nc2ccc3nncn3n2)c(=O)c2ccc(C(C)(F)F)nc12 [Compound 24] |  | < 4.70 | 6.52 |  |
| CC(C)c1nn(CC(=O)Nc2ccc3cnn(C(=O)OC(C)(C)C)c3c2)c(=O)c2ccc(C(F)(F)F)nc12 [Compound 11, tert-butyl 6-(2-(8-isopropyl-5-oxo-2-(trifluoromethyl)pyrido[2,3-d]pyridazin-6(5H)-yl)acetamido)-1H-indazole-1-carboxylate] | 6.28 | < 4.70 |  |  |
